Assay results from ChEMBL document CHEMBL1124124, “Synthesis and interaction with uridine phosphorylase of 5'-deoxy-4',5-difluorouridine, a new prodrug of 5-fluorouracil” (J Med Chem, 1988).

Test system: Uridine phosphorylase (Mus musculus)
Test: Relative Vmax for interaction with Urd phosphorylase

C[C@@]1(F)OC(n2cc(F)c(=O)[nH]c2=O)[C@H](O)[C@@H]1O (stereo partly specified)
Relative Vmax: 5
